Values quoted from earlier work in patent US20140271931A1, “Anti-Acne Topical Films” (Perosphere Inc., priority 2013, published 2014).

What was measured:
[1] = system: cultured normal and transformed mammalian cells

Structure (SMILES)	penetration of the cell interior compared with picolinic acid (cell interior)	solubility in water	inhibition of growth of cultured normal and transformed mammalian cells [1]
CCCCc1ccc(C(=O)O)nc1 [Fusaric acid]	penetrates the cell interior much more easily than picolinic acid	–	–
O=C(O)c1ccccn1 [Picolinic acid, 2-pyridine carboxylic acid]	–	readily soluble in water	inhibits the growth
